Reference: patent US20040063662A1, “Selenophene anti-tumor agents” (priority 1996, published 2004)

Tests used:
ACHN = test: NCI human tumor cell panel: ACHN (Renal Cancer); format: cell-based; conditions: Renal Cancer
NCI-H460 = test: NCI human tumor cell panel: NCI-H460 (Non-Small Cell Lung Cancer); format: cell-based; conditions: NCI-H460, Non-Small Cell Lung Cancer
HOP-92 = test: NCI human tumor cell panel: HOP-92 (Non-Small Cell Lung Cancer)
A549/ATCC = test: NCI human tumor cell panel: A549/ATCC (Non-Small Cell Lung Cancer); format: cell-based; conditions: Non-Small Cell Lung Cancer
K-562 = test: NCI human tumor cell panel: K-562 (Leukemia); format: cell-based; conditions: K562, K-562, Leukemia
TK-10 = test: NCI human tumor cell panel: TK-10 (Renal Cancer); format: cell-based; conditions: TK-10, Renal Cancer
OVCAR-8 = test: NCI human tumor cell panel: OVCAR-8 (Ovarian Cancer); format: cell-based; conditions: OVCAR-8, Ovarian Cancer
UO-31 = test: NCI human tumor cell panel: UO-31 (Renal Cancer); format: cell-based; conditions: UO-31, Renal Cancer
MCF7/ADR-RES = test: NCI human tumor cell panel: MCF7/ADR-RES (Breast Cancer); format: cell-based; conditions: Breast Cancer
DU-145 = test: NCI human tumor cell panel: DU-145 (Prostate Cancer); format: cell-based; conditions: DU-145, Prostate Cancer
HCC-2998 = test: NCI human tumor cell panel: HCC-2998 (Colon Cancer); format: cell-based; conditions: HCC-2998, Colon Cancer
MDA-MB-435 = test: NCI human tumor cell panel: MDA-MB-435 (Breast Cancer); format: cell-based; conditions: MDA-MB-435, Breast Cancer
SF-295 = test: NCI human tumor cell panel: SF-295 (CNS Cancer); format: cell-based; conditions: SF-295, CNS Cancer
LOX IMVI = test: NCI human tumor cell panel: LOX IMVI (Melanoma); format: cell-based; conditions: Melanoma
CCRF-CEM = test: NCI human tumor cell panel: CCRF-CEM (Leukemia); format: cell-based; conditions: Leukemia
U251 = test: NCI human tumor cell panel: U251 (CNS Cancer); format: cell-based; conditions: U-251, U251, CNS Cancer
HCT-116 = test: NCI human tumor cell panel: HCT-116 (Colon Cancer); format: cell-based; conditions: HCT-116, Colon Cancer
MCF7 = test: NCI human tumor cell panel: MCF7 (Breast Cancer); format: cell-based; conditions: MCF7, Breast Cancer
MDA-N = test: NCI human tumor cell panel: MDA-N (Breast Cancer); format: cell-based; conditions: Breast Cancer
PC-3 = test: NCI human tumor cell panel: PC-3 (Prostate Cancer); format: cell-based; conditions: PC-3, Prostate Cancer
BT-549 = test: NCI human tumor cell panel: BT-549 (Breast Cancer); format: cell-based; conditions: BT-549, Breast Cancer
786-0 = test: NCI human tumor cell panel: 786-0 (Renal Cancer); format: cell-based; conditions: 786-0, Renal Cancer
HS 578T = test: NCI human tumor cell panel: HS 578T (Breast Cancer); format: cell-based; conditions: Breast Cancer
SK-MEL-5 = test: NCI human tumor cell panel: SK-MEL-5 (Melanoma); format: cell-based; conditions: SK-MEL-5, Melanoma
RPMI-8226 = test: NCI human tumor cell panel: RPMI-8226 (Leukemia); format: cell-based; conditions: RPMI-8226, Leukemia
SNB-19 = test: NCI human tumor cell panel: SNB-19 (CNS Cancer); format: cell-based; conditions: SNB-19, CNS Cancer
UACC-257 = test: NCI human tumor cell panel: UACC-257 (Melanoma); format: cell-based; conditions: UACC-257, Melanoma
OVCAR-3 = test: NCI human tumor cell panel: OVCAR-3 (Ovarian Cancer); format: cell-based; conditions: OVCAR-3, Ovarian Cancer
MOLT-4 = test: NCI human tumor cell panel: MOLT-4 (Leukemia); format: cell-based; conditions: MOLT-4, Leukemia
IGROV1 = test: NCI human tumor cell panel: IGROV1 (Ovarian Cancer); format: cell-based; conditions: IGROV-1, IGROV1, Ovarian Cancer
M14 = test: NCI human tumor cell panel: M14 (Melanoma); format: cell-based; conditions: M14, Melanoma
SNB-75 = test: NCI human tumor cell panel: SNB-75 (CNS Cancer); format: cell-based; conditions: SNB-75, CNS Cancer
[1] = read-out: Log10 GI50 (converted)
[2] = read-out: Log10 TGI (converted)

What does the source list for OCc1ccc(-c2ccc(-c3cccs3)[se]2)s1 [NSC 675344]?
GI50 (ACHN; [1]): 12.9 µM; IC (TGI) (ACHN; [2]): 83.2 µM; GI50 (NCI-H460; [1]): < 0.01 µM; IC (TGI) (NCI-H460; [2]): > 100 µM; GI50 (HOP-92; HOP-92, read-out: Log10 GI50 (converted)): 27.5 µM; IC (TGI) (HOP-92; HOP-92, read-out: Log10 TGI): 89.1 µM; GI50 (A549/ATCC; [1]): 45.7 µM; IC (TGI) (A549/ATCC; [2]): > 100 µM; GI50 (K-562; [1]): 0.0437 µM; IC (TGI) (K-562; [2]): > 100 µM; GI50 (TK-10; [1]): < 0.01 µM; IC (TGI) (TK-10; [2]): 0.0501 µM; GI50 (OVCAR-8; [1]): > 100 µM; IC (TGI) (OVCAR-8; [2]): > 100 µM; GI50 (UO-31; [1]): > 100 µM; IC (TGI) (UO-31; [2]): > 100 µM; GI50 (MCF7/ADR-RES; [1]): > 100 µM; IC (TGI) (MCF7/ADR-RES; [2]): > 100 µM; GI50 (DU-145; [1]): 36.3 µM; IC (TGI) (DU-145; [2]): > 100 µM; GI50 (HCC-2998; [1]): 0.257 µM; IC (TGI) (HCC-2998; [2]): 1.62 µM; GI50 (MDA-MB-435; [1]): > 100 µM; IC (TGI) (MDA-MB-435; [2]): > 100 µM; GI50 (SF-295; [1]): 26.9 µM; IC (TGI) (SF-295; [2]): > 100 µM; GI50 (LOX IMVI; [1]): 34.7 µM; IC (TGI) (LOX IMVI; [2]): > 100 µM; GI50 (CCRF-CEM; [1]): > 100 µM; IC (TGI) (CCRF-CEM; [2]): > 100 µM; GI50 (U251; [1]): 0.0251 µM; IC (TGI) (U251; [2]): 26.3 µM; GI50 (HCT-116; [1]): < 0.01 µM; IC (TGI) (HCT-116; [2]): 0.0417 µM; GI50 (MCF7; [1]): 0.126 µM; IC (TGI) (MCF7; [2]): > 100 µM; GI50 (MDA-N; [1]): > 100 µM; IC (TGI) (MDA-N; [2]): > 100 µM; GI50 (PC-3; [1]): > 100 µM; IC (TGI) (PC-3; [2]): > 100 µM; GI50 (BT-549; [1]): 42.7 µM; IC (TGI) (BT-549; [2]): > 100 µM; GI50 (786-0; [1]): 12.3 µM; IC (TGI) (786-0; [2]): 67.6 µM; GI50 (HS 578T; [1]): 53.7 µM; IC (TGI) (HS 578T; [2]): > 100 µM; GI50 (SK-MEL-5; [1]): > 100 µM; IC (TGI) (SK-MEL-5; [2]): > 100 µM; GI50 (RPMI-8226; [1]): > 100 µM; IC (TGI) (RPMI-8226; read-out: Log10 TGI): > 100 µM; GI50 (SNB-19; [1]): 29.5 µM; IC (TGI) (SNB-19; [2]): > 100 µM; GI50 (UACC-257; [1]): < 0.01 µM; IC (TGI) (UACC-257; [2]): 0.0186 µM; GI50 (OVCAR-3; [1]): < 0.01 µM; IC (TGI) (OVCAR-3; [2]): > 100 µM; GI50 (MOLT-4; [1]): > 100 µM; IC (TGI) (MOLT-4; [2]): > 100 µM; GI50 (IGROV1; [1]): 0.0123 µM; IC (TGI) (IGROV1; [2]): 0.0427 µM; GI50 (M14; [1]): > 100 µM; IC (TGI) (M14; [2]): > 100 µM; GI50 (SNB-75; [1]): 16.6 µM; IC (TGI) (SNB-75; [2]): 49 µM
